Experimental data from paper PMC10221074, “Functional Profiling of the A-Family of Venom Peptides from the Wolf Spider Lycosa shansia” (Toxins, 2023).

Tests used:
[1] = tested on: Pseudomonas aeruginosa DSM 1117; assay: Antibacterial growth assay (OD600); details: for Bacterial growth relative to medium, P. aeruginosa (1117), replicate 1 / Bacterial growth relative to medium, P. aeruginosa (1117), replicate 2 / Bacterial growth relative to medium, P. aeruginosa (1117), replicate 3: OD600, medium = 100, MH II broth; for Bacterial growth relative to medium, P. aeruginosa (1117), replicate 1: replicate column 1; for Bacterial growth relative to medium, P. aeruginosa (1117), replicate 2: replicate column 2; for Bacterial growth relative to medium, P. aeruginosa (1117), replicate 3: replicate column 3
[2] = tested on: Pseudomonas aeruginosa DSM 50071; assay: Antibacterial growth assay (OD600); details: OD600, medium = 100, MH II broth; for Bacterial growth relative to medium, P. aeruginosa (50071), replicate 1: replicate column 1; for Bacterial growth relative to medium, P. aeruginosa (50071), replicate 2: replicate column 2; for Bacterial growth relative to medium, P. aeruginosa (50071), replicate 3: replicate column 3
[3] = tested on: Micrococcus luteus DSM 20030; assay: Antibacterial growth assay (OD600); details: OD600, medium = 100, MH II broth; for Bacterial growth relative to medium, M. luteus, replicate 1: replicate column 1; for Bacterial growth relative to medium, M. luteus, replicate 2: replicate column 2; for Bacterial growth relative to medium, M. luteus, replicate 3: replicate column 3
Procedure: (§1) Cryo-conserved cultures of selected bacterial strains (Table 4) were transferred to Tryptic Soy Agar (TSA) plates (Carl Roth) with a sterile inoculation loop, sealed with Parafilm (BEMIS, Neenah, WI, USA), and incubated for 1–2 days at 37 °C depending on growth. Single colonies were picked and transferred into 2–3 mL of the Mueller–Hinton II (MH II) broth (BD, Heidelberg, Germany). The bacteria were cultivated overnight, subcultured on fresh medium and grown for 3–4 h before testing at 37 °C, with shaking at 180 rpm. We measured the optical density at 600 nm (OD600) of 1 mL of the bacterial suspensions in polystyrene cuvettes (SARSTED, Nümbrecht, Germany) using an Ultrospec 10 spectrophotometer (Biochrome, Cambridge, UK). We then diluted them with the MH II medium to the preferred OD600 (Table 2). The peptides were dissolved in DMSO to generate 10 mmol/L stocks and diluted with the MH II medium to 200 µM before the assay. We used 10 µg/mL (~40 µg/mL for S. epidermidis) gentamicin and colistin (Sigma-Aldrich, Taufkirchen, Germany), DMSO and the medium only as controls. The bacteria were transferred to 96-multiwell plates with a final volume of 100 µL per well (50 µL bacterial suspension, and 50 µL test peptide). The OD600 was measured at 0, 24 and 48 h using a BioTek Eon microplate reader followed by analysis with Gen5 v2.09.

[4] = tested on: Staphylococcus aureus DSM 2569; assay: Antibacterial growth assay (OD600); details: OD600, medium = 100, MH II broth; for Bacterial growth relative to medium, S. aureus, replicate 1: replicate column 1; for Bacterial growth relative to medium, S. aureus, replicate 2: replicate column 2; for Bacterial growth relative to medium, S. aureus, replicate 3: replicate column 3
Procedure: as §1

[5] = tested on: Escherichia coli BL21(DE3); assay: Antibacterial growth assay (OD600); details: OD600, medium = 100, MH II broth; for Bacterial growth relative to medium, E. coli, replicate 1: replicate column 1; for Bacterial growth relative to medium, E. coli, replicate 2: replicate column 2; for Bacterial growth relative to medium, E. coli, replicate 3: replicate column 3
Procedure: as §1

[6] = tested on: Listeria monocytogenes DSM 20600; assay: Antibacterial growth assay (OD600); details: for Bacterial growth relative to medium, L. monocytogenes, replicate 1 / Bacterial growth relative to medium, L. monocytogenes, replicate 2 / Bacterial growth relative to medium, L. monocytogenes, replicate 3: OD600, medium = 100, MH II broth; for Bacterial growth relative to medium, L. monocytogenes, replicate 1: replicate column 1; for Bacterial growth relative to medium, L. monocytogenes, replicate 2: replicate column 2; for Bacterial growth relative to medium, L. monocytogenes, replicate 3: replicate column 3
Procedure: as §1

[7] = tested on: Staphylococcus epidermidis DSM 28319; assay: Antibacterial growth assay (OD600); details: for Bacterial growth relative to medium, S. epidermidis, replicate 1: replicate column 1; for Bacterial growth relative to medium, S. epidermidis, replicate 2: replicate column 2; for Bacterial growth relative to medium, S. epidermidis, replicate 3: replicate column 3
Procedure: as §1

[8] = tested on: B/Malaysia/2506/2004 (B-Mal); type: cell-based, influenza virus
A/Hamburg/05/2009 (H1N1) = type: cell-based, influenza virus
A/Hessen/1/2003 (H3N2) = type: cell-based, influenza virus
[9] = tested on: panel of seven bacterial strains; assay: Antibacterial growth assay (OD600), statements on the whole panel; type: cell-based; details: growth after 48 h
[10] = antibiotic control, table line says 10µg/mL (methods: ~40 µg/mL for S. epidermidis), OD600, medium = 100
[11] = 37 °C, peptide 200 µM mixed 50 µL + 50 µL with bacteria, Figure 7: 48 h
[12] = OD600, medium = 100, MH II broth, 37 °C, peptide 200 µM mixed 50 µL + 50 µL with bacteria, Figure 7: 48 h

CNC(C)C1CCC(N)C(OC2C(N)CC(N)C(OC3OCC(C)(O)C(NC)C3O)C2O)O1 (centres unmarked) [Genta, gentamicin, reference compound]
Bacterial growth relative to medium, P. aeruginosa (1117), replicate 1 ([1]; antibiotic control 10µg/mL): 7.251 | Bacterial growth relative to medium, P. aeruginosa (1117), replicate 2 ([1]; antibiotic control 10µg/mL): 12.1419 | Bacterial growth relative to medium, P. aeruginosa (1117), replicate 3 ([1]; antibiotic control 10µg/mL): 0.7836 | Bacterial growth relative to medium, P. aeruginosa (50071), replicate 1 ([2]; antibiotic control 10µg/mL): 10.9397 | Bacterial growth relative to medium, P. aeruginosa (50071), replicate 2 ([2]; antibiotic control 10µg/mL): 9.403 | Bacterial growth relative to medium, P. aeruginosa (50071), replicate 3 ([2]; antibiotic control 10µg/mL): 6.959 | Bacterial growth relative to medium, M. luteus, replicate 1 ([3]; antibiotic control 10µg/mL): 34.7531 | Bacterial growth relative to medium, M. luteus, replicate 2 ([3]; antibiotic control 10µg/mL): 33.0988 | Bacterial growth relative to medium, M. luteus, replicate 3 ([3]; antibiotic control 10µg/mL): 25.6914 | Bacterial growth relative to medium, S. aureus, replicate 1 ([4]; antibiotic control 10µg/mL): 10.1302 | Bacterial growth relative to medium, S. aureus, replicate 2 ([4]; antibiotic control 10µg/mL): 22.1938 | Bacterial growth relative to medium, S. aureus, replicate 3 ([4]; antibiotic control 10µg/mL): 8.389 | Bacterial growth relative to medium, E. coli, replicate 1 ([5]; antibiotic control 10µg/mL): 15.2669 | Bacterial growth relative to medium, E. coli, replicate 2 ([5]; antibiotic control 10µg/mL): 26.3127 | Bacterial growth relative to medium, E. coli, replicate 3 ([5]; antibiotic control 10µg/mL): 7.573 | Bacterial growth relative to medium, L. monocytogenes, replicate 1 ([6]; antibiotic control 10µg/mL): 41.2443 | Bacterial growth relative to medium, L. monocytogenes, replicate 2 ([6]; antibiotic control 10µg/mL): 32.6505 | Bacterial growth relative to medium, L. monocytogenes, replicate 3 ([6]; antibiotic control 10µg/mL): 13.0219 | Bacterial growth relative to medium, S. epidermidis, replicate 1 [7, 10]: 41.1615 | Bacterial growth relative to medium, S. epidermidis, replicate 2 [7, 10]: 36.2191 | Bacterial growth relative to medium, S. epidermidis, replicate 3 [7, 10]: 58.2561

SLFGLLDLVKNKVGQTGLL [LS-AMP-A2]
Viability of infected cells relative to aprotinin, Replicate 1 [8]: 0.03127 | Viability of infected cells relative to aprotinin, Replicate 2 [8]: 0.04494 | Viability of infected cells relative to aprotinin, Replicate 3 [8]: 0.06464 | Viability of infected cells relative to aprotinin, Replicate 1 (A/Hamburg/05/2009 (H1N1)): 0.06714 | Viability of infected cells relative to aprotinin, Replicate 2 (A/Hamburg/05/2009 (H1N1)): 0.03978 | Viability of infected cells relative to aprotinin, Replicate 3 (A/Hamburg/05/2009 (H1N1)): 0.06798 | Viability of infected cells relative to aprotinin, Replicate 4 (A/Hamburg/05/2009 (H1N1); […], replicate 4 (additional internal control)): 0.02665 | Viability of infected cells relative to aprotinin, Replicate 5 (A/Hamburg/05/2009 (H1N1); […], replicate 5 (additional internal control)): 0.03333 | Viability of infected cells relative to aprotinin, Replicate 1 (A/Hessen/1/2003 (H3N2)): 0.05065 | Viability of infected cells relative to aprotinin, Replicate 2 (A/Hessen/1/2003 (H3N2)): 0.0432 | Viability of infected cells relative to aprotinin, Replicate 3 (A/Hessen/1/2003 (H3N2)): 0.03436 | Antibacterial activity over the panel (in words) [9]: limited activity | Bacterial growth relative to medium, P. aeruginosa (1117), replicate 1 [1, 11]: 64.5445 | Bacterial growth relative to medium, P. aeruginosa (1117), replicate 2 [1, 11]: 72.5374 | Bacterial growth relative to medium, P. aeruginosa (1117), replicate 3 [1, 11]: 62.225 | Antibacterial activity (in words) ([1]; P. aeruginosa DSM 1117, growth after 48 h): less effective | Bacterial growth relative to medium, P. aeruginosa (50071), replicate 1 [2, 11]: 100.368 | Bacterial growth relative to medium, P. aeruginosa (50071), replicate 2 [2, 11]: 113.753 | Bacterial growth relative to medium, P. aeruginosa (50071), replicate 3 [2, 11]: 87.799 | Bacterial growth relative to medium, M. luteus, replicate 1 [3, 11]: 118.679 | Bacterial growth relative to medium, M. luteus, replicate 2 [3, 11]: 181.194 | Bacterial growth relative to medium, M. luteus, replicate 3 [3, 11]: 65.5667 | Bacterial growth relative to medium, S. aureus, replicate 1 [4, 11]: 88.0937 | Bacterial growth relative to medium, S. aureus, replicate 2 [4, 11]: 87.9986 | Bacterial growth relative to medium, S. aureus, replicate 3 [4, 11]: 104.003 | Bacterial growth relative to medium, E. coli, replicate 1 [5, 11]: 128.192 | Bacterial growth relative to medium, E. coli, replicate 2 [5, 11]: 150.174 | Bacterial growth relative to medium, E. coli, replicate 3 [5, 11]: 124.918 | Antibacterial activity (in words) ([6]; L. monocytogenes DSM 20600, growth after 48 h): less effective | Bacterial growth relative to medium, L. monocytogenes, replicate 1 [6, 11]: 66.982 | Bacterial growth relative to medium, L. monocytogenes, replicate 2 [6, 11]: 116.711 | Bacterial growth relative to medium, L. monocytogenes, replicate 3 [6, 11]: 86.9442 | Bacterial growth relative to medium, S. epidermidis, replicate 1 [7, 12]: 112.577 | Bacterial growth relative to medium, S. epidermidis, replicate 2 [7, 12]: 143.959 | Bacterial growth relative to medium, S. epidermidis, replicate 3 [7, 12]: 90.9149
